Earlier results in patent US20230073946A1, “AFFINITY PEPTIDE […] A[…] PROTECTION OF PROTEINS FROM OXIDATION” (ARIZONA BOARD OF REGENTS ON BEHALF OF THE UNIVERSITY OF …, priority 2020, published 2023).

Tested on: sugen/hypoxic PAH model
Details: cited from earlier work

Which “preventing pulmonary arterial remodeling” value (recently reported) does the source give for `CC1(C)CC(O)CC(C)(C)N1[O]` [TEMPOL] here?
Its value is “not effective”.

What about the “right ventricular hypertrophy and pulmonary arterial remodeling” value (sugen/hypoxic PAH model, reported) of the same molecule?
The value was “failed to attenuate”.
